Tests used:
[1] = patients with epilepsy, open label study, Gaston et al. 2017; cited from earlier work
[2] = test system: seizures associated with Lennox-Gastaut syndrome (LGS) in treatment-resistant patients; assay: Pooled analysis of two randomised, double-blind, placebo-controlled 14-week studies of add-on cannabidiol in LGS patients deemed AED treatment failures; type: in vivo, human; conditions: for Total Seizure Frequency, Treatment Difference vs. Placebo / Drop Seizure Frequency, Treatment Difference vs. Placebo: Hodges-Lehmann estimated median difference; for Drop Seizure Frequency, Median % Change During Treatment / Total Seizure Frequency, Median % Change During Treatment: from baseline
From the text: In two placebo-controlled studies of CBD as a treatment for seizures associated with LGS, cannabidiol was used as add-on treatment in patients who were defined as treatment-resistant. Patients had previously tried and stopped using a median of 6 AEDs, and were being maintained on a median of 3 AEDs.
The first study was a 1:1 randomised, double-blind, 14-week comparison of cannabidiol oral solution (CBD-OS) versus placebo. The treatment period consisted of a two-week titration period followed by a 12-week maintenance period. The treatment period was followed by a 10-day taper period and a four-week follow-up period. The study aimed to determine the efficacy, safety and tolerability of 20 mg/kg/day cannabidiol compared with placebo.
The second study was a 1:1:1 randomised, double-blind, 14-week comparison of two dose levels of cannabidiol (10 mg/kg/day and 20 mg/kg/day) versus placebo. The treatment period consisted of a two-week titration period followed by a 12-week maintenance period. The treatment period was followed by a 10-day taper period and a four-week follow-up period. The study aimed to determine the efficacy, safety and tolerability of two dose levels of CBD-OS compared with placebo. Patients in the placebo group were split into two equivalent cohorts; half receiving 10 mg/kg/day dosing volumes and half receiving 20 mg/kg/day dosing volumes.
In order to ensure that caregivers were able to interpret a seizure correctly, all caregivers underwent pre-study training, and their description and classification of a seizure was independently verified by a committee appointed by the Epilepsy Study Consortium
Despite the number of medications, the patients were already taking, the median number of drop seizures at baseline was in excess of 75 per month in both studies. These were patient populations with a high unmet medical need, who had already tried and failed multiple AEDs. In many cases, the AEDs they were being maintained on included those approved for the treatment of LGS; rufinamide, lamotrigine or topiramate.
An analysis of the change in seizure frequency for CBD vs placebo in patients who were currently taking, or had previously taken and stopped, each of rufinamide, lamotrigine or topiramate; felbamate was undertaken. Such patients can be reasonably defined as AED treatment failures.

[3] = Felbamate treatment failures, 10 mg/kg/day, N = 22
[4] = Felbamate treatment failures, 10 mg/kg/day, N = 22, P-value 0.1921 vs placebo
[5] = Felbamate treatment failures, 20 mg/kg/day, N = 38
[6] = Felbamate treatment failures, 20 mg/kg/day, N = 38, P-value 0.0068 vs placebo
[7] = Lamotrigine treatment failures, 10 mg/kg/day, N = 49
[8] = Lamotrigine treatment failures, 10 mg/kg/day, N = 49, P-value 0.0131 vs placebo
[9] = Lamotrigine treatment failures, 20 mg/kg/day, N = 114
[10] = Lamotrigine treatment failures, 20 mg/kg/day, N = 114, P-value <0.0001 vs placebo
[11] = Rufinamide treatment failures, 10 mg/kg/day, N = 47
[12] = Rufinamide treatment failures, 10 mg/kg/day, N = 47, P-value 0.1836 vs placebo
[13] = Rufinamide treatment failures, 20 mg/kg/day, N = 95
[14] = Rufinamide treatment failures, 20 mg/kg/day, N = 95, P-value 0.0011 vs placebo
[15] = Topiramate treatment failures, 10 mg/kg/day, N = 56
[16] = Topiramate treatment failures, 10 mg/kg/day, N = 56, P-value 0.0517 vs placebo
[17] = Topiramate treatment failures, 20 mg/kg/day, N = 111
[18] = Topiramate treatment failures, 20 mg/kg/day, N = 111, P-value 0.0016 vs placebo
[19] = felbamate treatment failures, 20 mg/kg dose
[20] = lamotrigine treatment failures, both doses (10 and 20 mg/kg/day)
[21] = rufinamide treatment failures, 20 mg/kg/day dose

## C=C(C)[C@@H]1CCC(C)=C[C@H]1c1c(O)cc(CCCCC)cc1O [Cannabidiol]
[1]
  serum levels of some AEDs in the presence of CBD: increased
[2]; CBD combined with rufinamide, lamotrigine, topiramate or felbamate
  reduction in drop and total seizure frequency in patients deemed to be treatment failures: statistically significant reduction
[2]; Felbamate treatment failures, 10 mg/kg/day, P-value 0.0282
  Total Seizure Frequency, Treatment Difference vs. Placebo: −21.77%
[2]; Felbamate treatment failures, 10 mg/kg/day, P-value 0.2984
  Drop Seizure Frequency, Treatment Difference vs. Placebo: −11.57%
[2]; [3]
  Drop Seizure Frequency, Treatment Period Median: 68.26 per 28 Days
  Total Seizure Frequency, Treatment Period Median: 103.09 per 28 Days
  Drop Seizure Frequency, Median % Change During Treatment: −30.50%
  Total Seizure Frequency, Median % Change During Treatment: −34.36%
[2]; [4]
  Number of Responders, ≥50% Reduction in Drop Seizure Frequency from Baseline: 6
  Responders (%), ≥50% Reduction in Drop Seizure Frequency from Baseline: 27.3%
[2]; Felbamate treatment failures, 20 mg/kg/day, P-value 0.0930
  Drop Seizure Frequency, Treatment Difference vs. Placebo: −17.76%
[2]; Felbamate treatment failures, 20 mg/kg/day, P-value 0.1179
  Total Seizure Frequency, Treatment Difference vs. Placebo: −14.58%
[2]; [5]
  Drop Seizure Frequency, Treatment Period Median: 47.32 per 28 Days
  Total Seizure Frequency, Treatment Period Median: 102.20 per 28 Days
  Drop Seizure Frequency, Median % Change During Treatment: −31.62%
  Total Seizure Frequency, Median % Change During Treatment: −27.56%
[2]; [6]
  Number of Responders, ≥50% Reduction in Drop Seizure Frequency from Baseline: 15
  Responders (%), ≥50% Reduction in Drop Seizure Frequency from Baseline: 39.5%
[2]; Lamotrigine treatment failures, 10 mg/kg/day, P-value 0.0040
  Drop Seizure Frequency, Treatment Difference vs. Placebo: −18.79%
[2]; Lamotrigine treatment failures, 10 mg/kg/day, P-value 0.0044
  Total Seizure Frequency, Treatment Difference vs. Placebo: −19.63%
[2]; [7]
  Drop Seizure Frequency, Treatment Period Median: 40.29 per 28 Days
  Total Seizure Frequency, Treatment Period Median: 68.41 per 28 Days
  Drop Seizure Frequency, Median % Change During Treatment: −37.16%
  Total Seizure Frequency, Median % Change During Treatment: −32.87%
[2]; [8]
  Number of Responders, ≥50% Reduction in Drop Seizure Frequency from Baseline: 17
  Responders (%), ≥50% Reduction in Drop Seizure Frequency from Baseline: 34.7%
[2]; Lamotrigine treatment failures, 20 mg/kg/day, P-value 0.0008
  Total Seizure Frequency, Treatment Difference vs. Placebo: −17.35%
[2]; Lamotrigine treatment failures, 20 mg/kg/day, P-value 0.0023
  Drop Seizure Frequency, Treatment Difference vs. Placebo: −19.24%
[2]; [9]
  Drop Seizure Frequency, Treatment Period Median: 36.30 per 28 Days
  Total Seizure Frequency, Treatment Period Median: 98.64 per 28 Days
  Drop Seizure Frequency, Median % Change During Treatment: −40.74%
  Total Seizure Frequency, Median % Change During Treatment: −34.44%
[2]; [10]
  Number of Responders, ≥50% Reduction in Drop Seizure Frequency from Baseline: 47
  Responders (%), ≥50% Reduction in Drop Seizure Frequency from Baseline: 41.2%
[2]; Rufinamide treatment failures, 10 mg/kg/day, P-value 0.0062
  Total Seizure Frequency, Treatment Difference vs. Placebo: −17.54%
[2]; Rufinamide treatment failures, 10 mg/kg/day, P-value 0.1314
  Drop Seizure Frequency, Treatment Difference vs. Placebo: −9.80%
[2]; [11]
  Drop Seizure Frequency, Treatment Period Median: 56.00 per 28 Days
  Total Seizure Frequency, Treatment Period Median: 95.51 per 28 Days
  Drop Seizure Frequency, Median % Change During Treatment: −32.95%
  Total Seizure Frequency, Median % Change During Treatment: −31.25%
[2]; [12]
  Number of Responders, ≥50% Reduction in Drop Seizure Frequency from Baseline: 13
  Responders (%), ≥50% Reduction in Drop Seizure Frequency from Baseline: 27.7%
[2]; Rufinamide treatment failures, 20 mg/kg/day, P-value 0.0008
  Total Seizure Frequency, Treatment Difference vs. Placebo: −19.43%
[2]; Rufinamide treatment failures, 20 mg/kg/day, P-value 0.0022
  Drop Seizure Frequency, Treatment Difference vs. Placebo: −19.34%
[2]; [13]
  Drop Seizure Frequency, Treatment Period Median: 42.30 per 28 Days
  Total Seizure Frequency, Treatment Period Median: 102.20 per 28 Days
  Drop Seizure Frequency, Median % Change During Treatment: −38.78%
  Total Seizure Frequency, Median % Change During Treatment: −34.90%
[2]; [14]
  Number of Responders, ≥50% Reduction in Drop Seizure Frequency from Baseline: 37
  Responders (%), ≥50% Reduction in Drop Seizure Frequency from Baseline: 38.9%
[2]; Topiramate treatment failures, 10 mg/kg/day, P-value 0.0047
  Total Seizure Frequency, Treatment Difference vs. Placebo: −17.04%
[2]; Topiramate treatment failures, 10 mg/kg/day, P-value 0.0074
  Drop Seizure Frequency, Treatment Difference vs. Placebo: −16.92%
[2]; [15]
  Drop Seizure Frequency, Treatment Period Median: 57.02 per 28 Days
  Total Seizure Frequency, Treatment Period Median: 88.31 per 28 Days
  Drop Seizure Frequency, Median % Change During Treatment: −36.08%
  Total Seizure Frequency, Median % Change During Treatment: −31.57%
[2]; [16]
  Number of Responders, ≥50% Reduction in Drop Seizure Frequency from Baseline: 17
  Responders (%), ≥50% Reduction in Drop Seizure Frequency from Baseline: 30.4%
[2]; Topiramate treatment failures, 20 mg/kg/day, P-value 0.0034
  Total Seizure Frequency, Treatment Difference vs. Placebo: −15.87%
[2]; Topiramate treatment failures, 20 mg/kg/day, P-value 0.0069
  Drop Seizure Frequency, Treatment Difference vs. Placebo: −16.83%
[2]; [17]
  Drop Seizure Frequency, Treatment Period Median: 44.00 per 28 Days
  Total Seizure Frequency, Treatment Period Median: 101.71 per 28 Days
  Drop Seizure Frequency, Median % Change During Treatment: −34.13%
  Total Seizure Frequency, Median % Change During Treatment: −33.76%
[2]; [18]
  Number of Responders, ≥50% Reduction in Drop Seizure Frequency from Baseline: 40
  Responders (%), ≥50% Reduction in Drop Seizure Frequency from Baseline: 36.0%
[2]; [19]
  proportion of patients with a 50% reduction in drop seizure frequency compared with placebo: statistically significantly greater proportion
  reduction in drop seizure frequency compared with placebo: marginally statistically significantly greater reduction
[2]; [20]
  proportion of patients with a 50% reduction in drop seizure frequency compared with placebo: significantly greater proportion
  reduction in both drop and total seizure frequency compared with placebo: significantly greater reduction
[2]; pooled data from two studies, effect most significant at 20 mg/kg/day
  benefit in patients taking without seizure control, or having stopped, the AEDs authorised for LGS in the EU: significant benefit
[2]; [21]
  proportion of patients with a 50% reduction in drop seizure frequency compared with placebo: significantly greater proportion
  reduction in drop and total seizure frequency compared with placebo: significantly greater reduction
[2]; topiramate treatment failures, both doses (10 and 20 mg/kg/day)
  reduction in both drop and total seizure frequency compared with placebo: significantly greater reduction
[2]; topiramate treatment failures, both doses, statistical significance for 20 mg/kg/day, only marginal for 10 mg/kg/day
  proportion of patients with a 50% reduction in drop seizure frequency compared with placebo: greater proportion
